# Test results as given in patent US10968198B2, “Biaryltriazole inhibitors of macrophage migration inhibitory factor” (YALE UNIVERSITY, priority 2015, dated 2021).
# Biological target: human MIF (Homo sapiens (Human), UniProt P14174)
# Test: X-ray crystallography of complexes with human MIF
# Details: co-crystal or soak
# Protocol: The solution was centrifuged at 13,000×g to remove precipitated compound and used to set up hanging-drop crystallization experiments. A reservoir of 2.0 M ammonium sulfate, 0.1 M Tris pH 7, and 3% isopropanol was added to the protein solution in a 1:1 ratio and stored at 20° C. Diffraction-quality crystals with a rod morphology grew within two weeks. The crystals were cryo-protected in 25% glycerol, 2.0M ammonium sulfate, 0.1 M Tris pH 7, and 3% isopropanol. Data was collected at the Advanced Photon Source remotely on the NE-CAT 24-ID-E beam line. […] Crystals were obtained by the hanging-drop method at 20° C. A reservoir of 2.2 M ammonium sulfate, 0.1 M Tris pH 7, and 3% isopropanol mixed in a 1:1 ratio with rhMIF (16 mg/mL) was used to produce 2 μL drops. […] Crystals were cryo-protected with 25% glycerol, 2.2 M ammonium sulfate, 0.1 M Tris pH 7, and 3% isopropanol. […] HKL2000 was used to index, integrate, and scale the MIF-3a data set in the […] space group and the MIF-3b in the P212121 space group. Phases were obtained by molecular replacement with PDB file 3U18 using the CCP4 and PHASER programs. Model building was performed in COOT with iterative restrained refinement with REFMAC.
row,SMILES,binding site in X-ray crystal structure of complex with human MIF
1,"COCCOc1ccc2nc(-c3cn(-c4ccc(O)cc4)nn3)ccc2c1 [Example 3b, 4-(4-(6-(2-methoxyethoxy)quinolin-2-yl)-1H-1,2,3-triazol-1-yl)phenol]",binding of these inhibitors in the tautomerase active site
2,"Oc1ccc(-n2cc(-c3ccc4cc(OCCOCCN5CCOCC5)ccc4n3)nn2)cc1 [Example 3v, 4-(4-(6-(2-(2-morpholinoethoxy)ethoxy)quinolin-2-yl)-1H-1,2,3-triazol-1-yl)phenol]",binding of these inhibitors in the tautomerase active site
3,"Oc1ccc(-n2cc(-c3ccc4ccccc4n3)nn2)cc1 [Example 3a, 4-(4-(quinolin-2-yl)-1H-1,2,3-triazol-1-yl)phenol]",binding of these inhibitors in the tautomerase active site
